Measured values taken from a melting point compilation (Tetko et al.; mined from patent text by program, amines drawn as free bases though some values may be those of a salt).

SMILES	melting point
Clc1cc2nc(Cl)c(I)n2cc1Cl	215 to 216 °C
CC(=O)SCC(CC#N)C(=O)O (stereo unspecified)	110 to 112 °C
COc1cccc(N(CC(=O)N(C)c2ccccc2)C(=O)CNC(=O)Nc2cccc(CO)c2)c1	142 °C
O=S(=O)(Cc1ccccc1)c1nc[nH]n1	160 to 162 °C
COc1ccccc1N1CCN(Cc2c[nH]c3ccccc23)CC1	188 to 190 °C
COc1cccc(NC(=O)NC2CN(C3CCCCC3)c3ccccc3N(CC(=O)C(C)(C)C)C2=O)c1 (stereo unspecified)	234 to 235 °C
COc1cc(Cl)c2nc(NN)nc(N)c2c1OC	168 to 169 °C
CCCOC(C)c1ccc(-c2ccc(O)cc2)cc1 (single isomer, unassigned; (+))	123 to 125 °C
COC(=O)c1cc(OC)c(OS(=O)(=O)C(F)(F)F)cc1[N+](=O)[O-]	69 to 70 °C
O=C(O)c1ccc(CNC(=O)C(CS)Cc2ccccc2)cc1 (stereo unspecified)	156 to 159 °C
COc1ccc(OC(C)=O)c(C(=O)O)c1	155 to 157 °C
COc1cccc(C2(CC(=O)O)CCCC2C(=O)O)c1 (stereo unspecified)	175 to 180 °C
CON=Cc1ncn2c1[C@@H]1CCN1C(=O)c1c(Cl)cccc1-2	199 to 200 °C
Cc1nc(NC(=O)Cc2ccsc2)c(Br)c(C)c1Br	157 °C
CCOC(=O)Nc1ccc2c(c1)C(c1ccccc1Cl)S(=O)(=O)CCC(=O)N2 (stereo unspecified)	295 to 296 °C
CCS(=O)(=O)Nc1cccc(C(=C(C)C)c2c[nH]cn2)c1	152 to 155 °C
CCOP(=O)(COS(=O)(=O)c1c(C)cccc1Cl)OCC	41 to 43 °C
CC1(C)Cc2c(c(N3CCCC3)nc3sc4c(NCc5ccc(S(N)(=O)=O)cc5)ncnc4c23)CO1	295 °C
O=c1c2[nH]c(C(C3CC3)C3CC3)nc2n(C2CC2)c(=O)n1C1CC1	197 to 198 °C
O=[N+]([O-])c1ccc(O)c(C(F)(F)F)c1	103 to 104 °C
CNC(=S)NS(=O)(=O)c1cc(CCNC(=O)c2cc(Cl)ccc2OC)ccc1-c1cccs1	189 to 191 °C
COc1ccc(Cc2ccc3nc(N)nc(N)c3c2)cc1OC	215 to 217 °C
COc1cc2c(cc1OCc1ccccc1)C(Sc1ccc(Cl)cc1)(C(N)=CC(=O)OC(C)(C)C)C2 (stereo unspecified)	112 to 115 °C
COC(=O)/C=C/c1cc2c(-c3ccccc3)c(CC(=O)Nc3ccc(F)cc3C(F)(F)F)c(=O)oc2cc1C	233 to 236 °C
Cc1cn([C@@H]2C[C@H](C(=O)OC(c3ccccc3)c3ccccc3)N(CCNC(=O)OCC3c4ccccc4-c4ccccc43)C2)c(=O)n(C(=O)c2ccccc2)c1=O	94 to 98 °C
COc1ccc(NC(C)(C)C(=O)O)c([N+](=O)[O-])c1	119 to 121 °C

SMILES	melting point
COC(=O)CCC(C(=O)C=Cc1ccc(O)c(OC(F)(F)F)c1)C(=O)C=Cc1ccc(O)c(OC(F)(F)F)c1 (stereo unspecified)	142 to 143 °C
c1ccc2c(C3CNCCNCCNCCNCCN3)cccc2c1 (stereo unspecified)	87 to 88 °C
CCc1ccnc2cc(OC)c(O)cc12	200 to 202 °C
CC(=O)Nc1ccn([C@@H]2C[C@H](OC(C)=O)[C@@H](O)[C@H]2O)c(=O)n1 (racemic)	98 to 100 °C
O=C(NC1=NCCC1)Nc1ccc(Br)cc1	221 to 224 °C
O=C(O)CCCCCCCCCCOc1ccccc1	76 to 78 °C
CC(=O)OCCN1C2=NCCN2C(=O)c2ccccc21	124 to 126 °C
O=c1[nH]cnc2c1sc(=O)n2C1OC(CO)C(O)C1O (stereo unspecified)	216 to 218 °C
Cn1nnnc1C(C=CC=O)=C(c1ccc(F)cc1)c1ccc(F)cc1	156 to 158 °C
CCOC(=O)c1cc2c(cn1)[nH]c1cccc(C=Nc3ccccc3)c12	298 to 302 °C
N#CC(c1ccnc(NCCc2c[nH]cn2)n1)c1nc2ccccc2s1 (stereo unspecified)	257 to 258 °C
COc1ncccc1NC(=NC#N)NC(NC(=O)c1ccc(Cl)cc1)C(C)(Cl)Cl (stereo unspecified)	155 to 156 °C
CCCc1[nH]c(C(=O)OCC)c(C)c1CCC	84 to 87 °C
Cc1cc(C(N)=O)cc([N+](=O)[O-])n1	227 to 228 °C
CSCC(=O)[C@H](COCc1ccccc1)NC(=O)[C@H](CC(C)C)NC(=O)OCc1ccccc1	58 to 70 °C
NC(=O)C1CNCCN1CCCC(c1ccc(F)cc1)c1ccc(F)cc1 (stereo unspecified)	114 °C
Cc1cc(NC(=O)NN(c2ccccc2)c2cccc(C#N)c2)ccc1N1CCCCC1=O	161 to 162 °C
CN1[C@H]2CC[C@@H]1[C@@H](CO)[C@@H](c1ccc(F)cc1)C2	79 to 80 °C
CCCCCS(=O)(=O)NC(=O)/C(C)=C/c1ccc(OCCOC)cc1Oc1ncc(C(F)(F)F)cc1Cl	108 to 111 °C
CCCCNC(=O)c1cc(S(=O)(=O)NC23CC4CC(CC(C4)C2)C3)cc2c1OCCO2	147 °C
NC(=O)N1C(=O)C(=C(OCC(=O)C2COCOC2)c2cccs2)c2cc(F)c(Cl)cc21	199 to 200 °C
COC(=O)c1ccc(OCC(=O)c2cc3cc(Cl)ccc3o2)cc1	145 to 147 °C
O=C(O)c1ccc2nc3c(c(=O)n2c1)CCCC3=Cc1ccccc1	261 to 263 °C
O[C@@H]1CCCC[C@H]1Nc1ccccc1 (relative stereo)	57 to 58 °C
COC(=O)Cc1cnc(-c2ccccc2)n1Cc1ccccc1	78 to 79 °C
